From patent US20060003920A1, “LAT1 transporters expressed in cancer cells” (Xenoport, Inc., priority 2004, published 2006)

Molecular target: T1, LAT1 and 4F2HC (Homo sapiens, UniProt Q01650)
T1 construct: expressed in transfected cells; host or cells: Xenopus oocytes, injected with in vitro transcribed cRNA
Experiment: 14C-gabapentin uptake into Xenopus oocytes expressing LAT1 and 4F2HC
Type: cell-based
Settings: Xenopus oocytes injected with LAT1 and 4F2HC cRNA vs noninjected controls
Text: To assess transport function of a specific transporter protein, it can be desirable to clone the cDNA and express the protein in cells that have low endogenous transport activity. Human LAT1 was cloned by PCR, fully sequenced, and subcloned into plasmids that can be used for expression in mammalian cells or Xenopus oocytes. The co-subunit required for LAT1 function, 4F2HC (Genbank accession AB018010), was also cloned and sequenced. Unless otherwise noted, 4F2HC was also co-expressed in each heterologous system described in the examples. […] For expression in Xenopus oocytes, in vitro LAT1 and 4F2HC cRNA was prepared and injected into defoliculated oocytes.

T1 sequence (Q01650 whole entry): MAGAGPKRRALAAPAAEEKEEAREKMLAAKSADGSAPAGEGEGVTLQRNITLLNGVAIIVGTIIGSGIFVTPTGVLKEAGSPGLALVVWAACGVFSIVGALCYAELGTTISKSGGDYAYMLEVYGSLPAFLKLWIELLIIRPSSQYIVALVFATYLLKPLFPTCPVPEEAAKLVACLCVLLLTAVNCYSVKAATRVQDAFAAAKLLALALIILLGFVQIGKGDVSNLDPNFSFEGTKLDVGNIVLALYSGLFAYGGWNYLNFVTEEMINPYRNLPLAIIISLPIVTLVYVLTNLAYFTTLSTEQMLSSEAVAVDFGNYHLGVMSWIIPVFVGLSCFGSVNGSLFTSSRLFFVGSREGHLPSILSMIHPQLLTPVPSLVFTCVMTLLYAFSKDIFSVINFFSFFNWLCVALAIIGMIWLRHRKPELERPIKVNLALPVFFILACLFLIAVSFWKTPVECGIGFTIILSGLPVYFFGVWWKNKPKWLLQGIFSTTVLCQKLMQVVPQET
T1 sequence (P08195 102-630 partner): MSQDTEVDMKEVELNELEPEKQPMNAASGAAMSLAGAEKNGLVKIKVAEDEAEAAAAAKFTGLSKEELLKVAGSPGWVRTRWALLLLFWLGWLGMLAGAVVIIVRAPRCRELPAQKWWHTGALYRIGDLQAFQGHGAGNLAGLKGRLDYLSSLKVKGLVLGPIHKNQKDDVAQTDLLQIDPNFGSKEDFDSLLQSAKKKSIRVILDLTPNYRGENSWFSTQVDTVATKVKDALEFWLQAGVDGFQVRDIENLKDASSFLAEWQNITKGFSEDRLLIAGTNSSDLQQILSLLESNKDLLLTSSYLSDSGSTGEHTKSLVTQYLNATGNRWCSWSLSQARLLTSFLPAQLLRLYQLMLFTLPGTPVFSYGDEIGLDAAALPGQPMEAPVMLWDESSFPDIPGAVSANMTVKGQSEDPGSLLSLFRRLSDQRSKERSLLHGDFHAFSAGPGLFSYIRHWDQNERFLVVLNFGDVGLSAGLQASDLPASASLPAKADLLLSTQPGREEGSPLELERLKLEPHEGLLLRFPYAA

## NCC1(CC(=O)O)CCCCC1 [Gabapentin]
  14C-gabapentin uptake into oocytes: higher levels of 14C-gabapentin uptake than noninjected controls
